Data published in patent US10947188B2, “Small molecule ferroptosis inducers” (THE TRUSTEES OF COLUMBIA UNIVERSITY IN THE CITY OF NEW YORK, priority 2016, dated 2021).

Columns and labels:
[1] = tested on: BJeLR; assay: Modulatory profiling: Alamar Blue viability, lethal compound cotreated with death modulator (EC50, AUC); type: cell-based, human; set-up: AUC, modulator BJ.Gd3+ / AUC, modulator BJ.LNAME / AUC, modulator BJ.Lmin / AUC, modulator BJ.3MA / AUC, modulator BJ.ALLN / AUC, modulator BJ.Boc D / AUC, modulator BJ.CHX / AUC, modulator BJ.Co2+ / AUC, modulator BJ.Nec-1 / AUC, modulator BJ.Pepstatin / AUC, modulator BJ.TLCK / AUC, modulator BJ.atoc / AUC, modulator BJ.trolox / AUC, modulator BJ.zVAD: unit not given beside the values; settings: BJeLR cells, modulatory profile value (AUC); for AUC, modulator BJ.3MA: lethal compound cotreated with modulator 3MA; for AUC, modulator BJ.ALLN: lethal compound cotreated with modulator ALLN; for AUC, modulator BJ.Boc D: lethal compound cotreated with modulator Boc D; for AUC, modulator BJ.CHX: lethal compound cotreated with modulator CHX; for AUC, modulator BJ.Co2+: lethal compound cotreated with modulator Co2+; for AUC, modulator BJ.DPQ: lethal compound cotreated with modulator DPQ; for AUC, modulator BJ.Gd3+: lethal compound cotreated with modulator Gd3+; for AUC, modulator BJ.LNAME: lethal compound cotreated with modulator LNAME; for AUC, modulator BJ.Lmin/NAD+: lethal compound cotreated with modulator Lmin/NAD+; for AUC, modulator BJ.Lmin: lethal compound cotreated with modulator Lmin; for AUC, modulator BJ.NAD+: lethal compound cotreated with modulator NAD+; for AUC, modulator BJ.NMMA: lethal compound cotreated with modulator NMMA; for AUC, modulator BJ.Nec-1: lethal compound cotreated with modulator Nec-1; for AUC, modulator BJ.Pepstatin: lethal compound cotreated with modulator Pepstatin; for AUC, modulator BJ.TLCK: lethal compound cotreated with modulator TLCK; for AUC, modulator BJ.atoc: lethal compound cotreated with modulator atoc; for AUC, modulator BJ.trolox: lethal compound cotreated with modulator trolox; for AUC, modulator BJ.zVAD: lethal compound cotreated with modulator zVAD; for AUC, modulator BJ.3MA: reference of the scale not given here; for AUC, modulator BJ.ALLN: reference of the scale not given here; for AUC, modulator BJ.Boc D: reference of the scale not given here; for AUC, modulator BJ.CHX: reference of the scale not given here; for AUC, modulator BJ.Co2+: reference of the scale not given here; for AUC, modulator BJ.DPQ: reference of the scale not given here; for AUC, modulator BJ.Gd3+: reference of the scale not given here; for AUC, modulator BJ.LNAME: reference of the scale not given here; for AUC, modulator BJ.NAD+: reference of the scale not given here; for AUC, modulator BJ.NMMA: reference of the scale not given here; for AUC, modulator BJ.Nec-1: reference of the scale not given here; for AUC, modulator BJ.Pepstatin: reference of the scale not given here; for AUC, modulator BJ.TLCK: reference of the scale not given here
[2] = tested on: HT-1080; assay: as above; type: cell-based; set-up: AUC, modulator HT.3MA / AUC, modulator HT.ALLN / AUC HT.ATA / AUC HT.ActD / AUC HT.BHA / AUC HT.BHT / AUC HT.BocD / AUC HT.CHX / AUC HT.Co2+ / AUC HT.DPQ / AUC HT.EGTA / AUC HT.Lmim / AUC HT.NAD+ / AUC HT.Nec-1 / AUC HT.SP600125 / AUC HT.TLCK / AUC HT.U0126: unit not given beside the values; settings: for AUC HT.ATA: HT-1080, modulator ATA; for AUC HT.ActD: HT-1080, modulator ActD; for AUC HT.BHA: HT-1080, modulator BHA; for AUC HT.BHT: HT-1080, modulator BHT; for AUC HT.BocD: HT-1080, modulator BocD; for AUC HT.CHX: HT-1080, modulator CHX; for AUC HT.Co2+: HT-1080, modulator Co2+; for AUC HT.CspA: HT-1080, modulator CspA; for AUC HT.DPQ: HT-1080, modulator DPQ; for AUC HT.EGTA: HT-1080, modulator EGTA; for AUC HT.Gd3+: HT-1080, modulator Gd3+; for AUC HT.LNAME: HT-1080, modulator LNAME; for AUC HT.Lmim: HT-1080, modulator Lmim; for AUC HT.NAD+: HT-1080, modulator NAD+; for AUC HT.NMMA: HT-1080, modulator NMMA; for AUC HT.Nec-1: HT-1080, modulator Nec-1; for AUC HT.Pepstatin: HT-1080, modulator Pepstatin; for AUC HT.SP600125: HT-1080, modulator SP600125; for AUC HT.TLCK: HT-1080, modulator TLCK; for AUC HT.U0126: HT-1080, modulator U0126; for HT.atoc (AUC) / HT.bCarotene (AUC) / HT.deferox (AUC) / HT.digoxin (AUC) / HT.trolox (AUC) / HT.zVAD (AUC): HT-1080; for HT.atoc (AUC): modulator atoc; for HT.bCarotene (AUC): modulator bCarotene; for HT.deferox (AUC): modulator deferox; for HT.digoxin (AUC): modulator digoxin; for HT.trolox (AUC): modulator trolox; for HT.zVAD (AUC): modulator zVAD; for AUC, modulator HT.3MA / AUC, modulator HT.ALLN: HT-1080 cells, modulatory profile value (AUC); for AUC, modulator HT.3MA: lethal compound cotreated with modulator 3MA; for AUC, modulator HT.ALLN: lethal compound cotreated with modulator ALLN; for AUC HT.BHA: reference of the scale not given here; for AUC HT.EGTA: reference of the scale not given here

Compound: O=C1c2ccccc2-c2onc3ccc(Oc4ccccc4)c1c23 [CIL6]
- AUC, modulator BJ.3MA [1]: 0.1191
- AUC, modulator BJ.ALLN [1]: −0.0496
- AUC, modulator BJ.Boc D [1]: −0.05247
- AUC, modulator BJ.CHX [1]: 0.1353
- AUC, modulator BJ.Co2+ [1]: 0.06961
- AUC, modulator BJ.DPQ [1]: 0.01365
- AUC, modulator BJ.Gd3+ [1]: 0.006848
- AUC, modulator BJ.LNAME [1]: −0.02637
- AUC, modulator BJ.Lmin/NAD+ [1]: −0.0638
- AUC, modulator BJ.Lmin [1]: −0.03874
- AUC, modulator BJ.NAD+ [1]: 0.02657
- AUC, modulator BJ.NMMA [1]: 0.006287
- AUC, modulator BJ.Nec-1 [1]: 0.01237
- AUC, modulator BJ.Pepstatin [1]: 0.03711
- AUC, modulator BJ.TLCK [1]: −0.01536
- AUC, modulator BJ.atoc [1]: 0.01482
- AUC, modulator BJ.trolox [1]: −0.006777
- AUC, modulator BJ.zVAD [1]: −0.003192
- AUC HT.ATA [2]: 0.007654
- AUC HT.ActD [2]: −0.008928
- AUC HT.BHA [2]: −0.007636
- AUC HT.BHT [2]: −0.06114
- AUC HT.BocD [2]: 0.076
- AUC HT.CHX [2]: 0.161
- AUC HT.Co2+ [2]: 0.04208
- AUC HT.CspA [2]: −0.01275
- AUC HT.DPQ [2]: 0.04323
- AUC HT.EGTA [2]: 0.01026
- AUC HT.Gd3+ [2]: −0.02897
- AUC HT.LNAME [2]: 0.0157
- AUC HT.Lmim [2]: −0.01064
- AUC HT.NAD+ [2]: 0.04899
- AUC HT.NMMA [2]: −0.02292
- AUC HT.Nec-1 [2]: 0.01299
- AUC HT.Pepstatin [2]: 0.0188
- AUC HT.SP600125 [2]: −0.01195
- AUC HT.TLCK [2]: −0.00546
- AUC HT.U0126 [2]: 0.04846
- HT.atoc (AUC) [2]: 0.1204
- HT.bCarotene (AUC) [2]: −0.0173
- HT.deferox (AUC) [2]: 0.02051
- HT.digoxin (AUC) [2]: 0.009607
- HT.trolox (AUC) [2]: −0.01697
- HT.zVAD (AUC) [2]: −0.01676
- AUC, modulator HT.3MA [2]: 0.06096
- AUC, modulator HT.ALLN [2]: 0.04648

Compound: OCCNCC(O)Cn1c2ccc(Br)cc2c2cc(Br)ccc21 (centres unmarked) [CIL7]
- AUC, modulator BJ.3MA [1]: 0.09188
- AUC, modulator BJ.ALLN [1]: −0.02876
- AUC, modulator BJ.Boc D [1]: −0.04946
- AUC, modulator BJ.CHX [1]: −0.01056
- AUC, modulator BJ.Co2+ [1]: 0.09999
- AUC, modulator BJ.DPQ [1]: 0.06721
- AUC, modulator BJ.Gd3+ [1]: −0.01897
- AUC, modulator BJ.LNAME [1]: −0.03182
- AUC, modulator BJ.Lmin/NAD+ [1]: 0.01771
- AUC, modulator BJ.Lmin [1]: 0.01256
- AUC, modulator BJ.NAD+ [1]: 0.009046
- AUC, modulator BJ.NMMA [1]: −0.01533
- AUC, modulator BJ.Nec-1 [1]: 0.02534
- AUC, modulator BJ.Pepstatin [1]: 0.06231
- AUC, modulator BJ.TLCK [1]: −0.02373
- AUC, modulator BJ.atoc [1]: 0.0008495
- AUC, modulator BJ.trolox [1]: 0.0424
- AUC, modulator BJ.zVAD [1]: −0.05834
- AUC HT.ATA [2]: −0.01671
- AUC HT.ActD [2]: −0.01197
- AUC HT.BHA [2]: −0.06352
- AUC HT.BHT [2]: −0.103
- AUC HT.BocD [2]: 0.07799
- AUC HT.CHX [2]: 0.0511
- AUC HT.Co2+ [2]: 0.1062
- AUC HT.CspA [2]: −0.06441
- AUC HT.DPQ [2]: 0.005254
- AUC HT.EGTA [2]: 0.006456
- AUC HT.Gd3+ [2]: −0.02982
- AUC HT.LNAME [2]: 0.01998
- AUC HT.Lmim [2]: −0.002674
- AUC HT.NAD+ [2]: 0.07707
- AUC HT.NMMA [2]: −0.02442
- AUC HT.Nec-1 [2]: 0.007138
- AUC HT.Pepstatin [2]: −0.00124
- AUC HT.SP600125 [2]: −0.04155
- AUC HT.TLCK [2]: −0.01113
- AUC HT.U0126 [2]: 0.01556
- HT.atoc (AUC) [2]: 0.02896
- HT.bCarotene (AUC) [2]: −0.0174
- HT.deferox (AUC) [2]: −0.05071
- HT.digoxin (AUC) [2]: 0.003869
- HT.trolox (AUC) [2]: −0.006321
- HT.zVAD (AUC) [2]: −0.03773
- AUC, modulator HT.3MA [2]: −0.004626
- AUC, modulator HT.ALLN [2]: 0.1136
